We go through two molecules from patent US20220193240A1, “TRIGGERABLE HYDROGEL COMPOSITIONS AND RELATED METHODS” (Massachusetts Institute of Technology, priority 2016, published 2022).

For data set [1] the following is noted: pH 7.4.
Experimental: Permeability measurement. The measurement of permeability of TTHs was carried out on a Franz diffusion cell using a TTH membrane (thickness, 3 mm). […] At each time point, 0.4 mL was sampled from the acceptor compartment and 0.4 mL fresh PBS was supplemented through the sampling port of the cell.
Data set [2] in a line: In vivo pharmacokinetics of lumefantrine with model fit. More on the design: species or system Yorkshire pig. The protocol: In vivo studies. All animal experiments were performed in accordance with protocols approved by the Committee on Animal Care at MIT. A large animal model, 45-55 kg Yorkshire pigs, was chosen as its gastric anatomy similar to humans and is widely used in evaluating devices in the GI space. Pigs were sedated with Telazol (tiletamine/zolazepam) 5 mg kg−1, xylazine 2 mg kg−1, and atropine 0.05 mg kg−1, and/or isoflurane (1˜3% inhaled), and an endoscopic overtube (US Endoscopy) was placed in the esophagus under endoscopic visual guidance during esophageal intubation. To evaluate the TTH for its ability to be triggered to dissolve into solution with biocompatible agents, the retrievable TTH strips and methyl blue-labeled large TTH sheets were administered via the overtube into the stomach. PBS (0.5 L) containing EDTA (40 mM), GSH (20 mM), and NaHCO3 (60 mM) was administered via the overtube after the gastric placement of the TTH samples. Intra-gastric endoscopy videography was used for image capture of the dissolution of the TTH sheets. The TTH strips were retrieved endoscopically after 1 h in the gastric cavity. Pigs that were not administered EDTA/GSH and therefore the strips and sheets were only exposed to gastric fluid were used as control experiments. To assess TTHs for the ability to achieve gastric retention, radiopaque barium sulfate-labeled capsule-like TTHs were administered via the overtube into the gastric cavity (one TTH device per pig). Radiographs were performed every 48-72 h to monitor the integrity and transit of the devices as well as any radiographic evidence of bowel obstruction or perforation. […] During the evaluation of the TTH systems for gastric residence and drug delivery the animals were monitored twice daily for any signs of abnormal feeding and stooling patterns. Additionally the animals were monitored clinically for any evidence of gastrointestinal obstruction as well as radiographically every 48-72 hours for evidence of obstruction and/or perforation. […]

As to `C[S+](C)[O-]` [dimethyl sulfoxide], the “permeability through the TTH” value in data set [1] was determined as 0.082 mL h·cm−2.
For `CCCCN(CCCC)CC(O)c1cc(Cl)cc2c1-c1ccc(Cl)cc1/C2=C/c1ccc(Cl)cc1` (stereo not shown) [free lumefantrine, lumefantrine], the clearance from blood entry in data set [2] (after a single administration) is “rapidly cleared from blood”. Further, the absorption rate constant in data set [2] (first order model fit) was 1.17 day⁻¹. For the same molecule, the elimination rate constant in data set [2] (free drug, model fit, estimated) was 1.17 day⁻¹.
